From the NIST ThermoML archive (doi:10.1021/je060243s)
± gives the expanded uncertainty stated by the source.

Test: wn = mass fraction of the nth substance listed
Details: Liquid, Pulse-echo method, w2 = 0.5

Structure (SMILES): FC(F)C(F)(F)F [pentafluoroethane] + FCF
- speed of sound (265.61 K, 16010 kPa): 732.1 ± 1.3 m/s
- speed of sound (265.61 K, 18000 kPa): 744.4 ± 1.3 m/s
- speed of sound (265.61 K, 20000 kPa): 756.2 ± 1.3 m/s
- speed of sound (265.61 K, 23000 kPa): 773.6 ± 1.3 m/s
- speed of sound (265.61 K, 26000 kPa): 790.1 ± 1.3 m/s
- speed of sound (265.61 K, 29010 kPa): 806.2 ± 1.3 m/s
- speed of sound (265.61 K, 32000 kPa): 821.5 ± 1.3 m/s
- speed of sound (265.61 K, 35000 kPa): 835.5 ± 1.3 m/s
- speed of sound (265.61 K, 40000 kPa): 858.8 ± 1.3 m/s
- speed of sound (265.61 K, 45000 kPa): 880.8 ± 1.3 m/s
- speed of sound (265.61 K, 50000 kPa): 902 ± 1.3 m/s
- speed of sound (265.61 K, 55000 kPa): 922.4 ± 1.3 m/s
- speed of sound (265.61 K, 60000 kPa): 941.6 ± 1.3 m/s
- speed of sound (265.61 K, 65000 kPa): 959.9 ± 1.3 m/s
- speed of sound (273.12 K, 830 kPa): 574.5 ± 1.3 m/s
- speed of sound (273.12 K, 1220 kPa): 578.8 ± 1.3 m/s
- speed of sound (273.12 K, 1360 kPa): 580.1 ± 1.3 m/s
- speed of sound (273.12 K, 1500 kPa): 581.6 ± 1.3 m/s
- speed of sound (273.12 K, 1750 kPa): 584.2 ± 1.3 m/s
- speed of sound (273.12 K, 2010 kPa): 586.8 ± 1.3 m/s
- speed of sound (273.12 K, 2250 kPa): 589.4 ± 1.3 m/s
- speed of sound (273.12 K, 2510 kPa): 591.9 ± 1.3 m/s
- speed of sound (273.12 K, 2750 kPa): 594.1 ± 1.3 m/s
- speed of sound (273.12 K, 3010 kPa): 596.9 ± 1.3 m/s
- speed of sound (273.12 K, 3500 kPa): 601.6 ± 1.3 m/s
- speed of sound (273.12 K, 4000 kPa): 606.4 ± 1.3 m/s
- speed of sound (273.12 K, 4500 kPa): 611 ± 1.3 m/s
- speed of sound (273.12 K, 5000 kPa): 615.4 ± 1.3 m/s
- speed of sound (273.12 K, 6010 kPa): 624.4 ± 1.3 m/s
- speed of sound (273.12 K, 7010 kPa): 633.3 ± 1.3 m/s
- speed of sound (273.12 K, 8000 kPa): 641.5 ± 1.3 m/s
- speed of sound (273.12 K, 9000 kPa): 649.3 ± 1.3 m/s
- speed of sound (273.12 K, 10000 kPa): 657.6 ± 1.3 m/s
- speed of sound (273.12 K, 12000 kPa): 672.7 ± 1.3 m/s
- speed of sound (273.12 K, 14000 kPa): 687.3 ± 1.3 m/s
- speed of sound (273.12 K, 16010 kPa): 701.1 ± 1.3 m/s
- speed of sound (273.12 K, 18000 kPa): 714.5 ± 1.3 m/s
- speed of sound (273.12 K, 20000 kPa): 727 ± 1.3 m/s
- speed of sound (273.12 K, 23000 kPa): 745.4 ± 1.3 m/s
- speed of sound (273.12 K, 26000 kPa): 762.7 ± 1.3 m/s
- speed of sound (273.12 K, 29010 kPa): 779 ± 1.3 m/s
- speed of sound (273.12 K, 32000 kPa): 794.8 ± 1.3 m/s
- speed of sound (273.12 K, 35000 kPa): 809.6 ± 1.3 m/s
- speed of sound (273.12 K, 40000 kPa): 833.5 ± 1.3 m/s
- speed of sound (273.12 K, 45000 kPa): 856.4 ± 1.3 m/s
- speed of sound (273.12 K, 50000 kPa): 877.8 ± 1.3 m/s
- speed of sound (273.12 K, 55000 kPa): 898.7 ± 1.3 m/s
- speed of sound (273.12 K, 60000 kPa): 919 ± 1.3 m/s
- speed of sound (273.12 K, 65000 kPa): 938 ± 1.3 m/s
- speed of sound (273.12 K): 574.5 ± 1.3 m/s
- speed of sound (280.72 K, 1030 kPa): 535.2 ± 1.3 m/s
- speed of sound (280.72 K, 1060 kPa): 535.5 ± 1.3 m/s
- speed of sound (280.72 K, 1150 kPa): 536.9 ± 1.3 m/s
- speed of sound (280.72 K, 1260 kPa): 538 ± 1.3 m/s
- speed of sound (280.72 K, 1380 kPa): 539.4 ± 1.3 m/s
- speed of sound (280.72 K, 1500 kPa): 540.9 ± 1.3 m/s
- speed of sound (280.72 K, 1630 kPa): 542.3 ± 1.3 m/s
- speed of sound (280.72 K, 1750 kPa): 543.8 ± 1.3 m/s
- speed of sound (280.72 K, 2010 kPa): 546.7 ± 1.3 m/s
- speed of sound (280.72 K, 2250 kPa): 549.6 ± 1.3 m/s
- speed of sound (280.72 K, 2510 kPa): 552.3 ± 1.3 m/s
- speed of sound (280.72 K, 2750 kPa): 555 ± 1.3 m/s
- speed of sound (280.72 K, 3010 kPa): 557.9 ± 1.3 m/s
- speed of sound (280.72 K, 3500 kPa): 563.2 ± 1.3 m/s
- speed of sound (280.72 K, 4000 kPa): 568.5 ± 1.3 m/s
- speed of sound (280.72 K, 4500 kPa): 573.7 ± 1.3 m/s
- speed of sound (280.72 K, 5000 kPa): 579 ± 1.3 m/s
- speed of sound (280.72 K, 6010 kPa): 588.6 ± 1.3 m/s
- speed of sound (280.72 K, 7010 kPa): 598.3 ± 1.3 m/s
- speed of sound (280.72 K, 8000 kPa): 607.1 ± 1.3 m/s
- speed of sound (280.72 K, 9000 kPa): 615.9 ± 1.3 m/s
- speed of sound (280.72 K, 10000 kPa): 624.5 ± 1.3 m/s
- speed of sound (280.72 K, 12000 kPa): 640.6 ± 1.3 m/s
- speed of sound (280.72 K, 14000 kPa): 656.1 ± 1.3 m/s
- speed of sound (280.72 K, 16010 kPa): 670.9 ± 1.3 m/s
- speed of sound (280.72 K, 18000 kPa): 684.9 ± 1.3 m/s
- speed of sound (280.72 K, 20000 kPa): 698.3 ± 1.3 m/s
- speed of sound (280.72 K, 23000 kPa): 717 ± 1.3 m/s
- speed of sound (280.72 K, 26000 kPa): 735.5 ± 1.3 m/s
- speed of sound (280.72 K, 29010 kPa): 752.6 ± 1.3 m/s
- speed of sound (280.72 K, 32000 kPa): 769.2 ± 1.3 m/s
- speed of sound (280.72 K, 35000 kPa): 785.1 ± 1.3 m/s
- speed of sound (280.72 K, 40000 kPa): 809.7 ± 1.3 m/s
- speed of sound (280.72 K, 45000 kPa): 833.1 ± 1.3 m/s
- speed of sound (280.72 K, 50000 kPa): 855.3 ± 1.3 m/s
- speed of sound (280.72 K, 55000 kPa): 876.4 ± 1.3 m/s
- speed of sound (280.72 K, 60000 kPa): 898.9 ± 1.3 m/s
- speed of sound (280.72 K, 65000 kPa): 916.7 ± 1.3 m/s
- speed of sound (280.72 K): 535.2 ± 1.3 m/s
- speed of sound (288.2 K, 1350 kPa): 496 ± 1.3 m/s
- speed of sound (288.2 K, 1420 kPa): 497.2 ± 1.3 m/s
- speed of sound (288.2 K, 1480 kPa): 498 ± 1.3 m/s
- speed of sound (288.2 K, 1550 kPa): 499 ± 1.3 m/s
